Measured values: patent US11214565B2, “Compound, compositions, and methods” (Denali Therapeutics Inc., priority 2015, dated 2022)

Target: LRRK2 G2019S enzyme (Homo sapiens (Human), UniProt Q5S007, G2019S)
Test: LRRK2 G2019S TR-FRET biochemical kinase assay (LRRKtide substrate)
Details: Table A-2; 5 nM LRRK2, 134 μM ATP, 60 minute reaction, 23° C.
Description: LRRK2 G2019S enzyme, Substrate (LRRKtide), ATP, TR-FRET dilution buffer, pLRRKtide antibody, 384-well assay plate, and DMSO.
50 mM Tris pH 7.5, 10 mM MgCl2, 1 mM EGTA, 0.01% Brij-35, 2 mM DTT, 5 nM LRRK2, 134 μM ATP, 60 minute reaction time, 23° C. reaction temperature, and 10 μL total reaction volume.
1×TR-FRET dilution buffer, 10 mM EDTA, 2 nM antibody, 23° C. reaction temperature, and 10 μL total reaction volume.
Compound solutions were prepared by initially diluting to 1 mM with DMSO. 35 μL of reference compound solution, 35 μL of test compound solution, and 35 μL HPE were successively added to the source plate (384-well assay plate, Labcyte). The plates were centrifuged at 2500 rpm for 1 minute and sealed in foil. POD was used to perform a 3.162 fold serial dilution and 100 nL of reference compound solution, test compound solution, HPE and ZPE were transferred to assay plates. The assay plate was centrifuged at 2500 rpm for 1 minute, and sealed with foil.
To perform the enzyme reaction, 5 μL of LRRKtide substrate and kinase mixture in assay buffer was added to all wells of the assay plate. The plate was centrifuged to concentrate the mixture at the bottom of the wells. The assay plate was incubated at 23° C. for 20 minutes. Following incubation, 5 μL of 2×ATP in assay buffer was added to each well, and plates were centrifuged to concentrate the mixture at the bottom of the wells. The plate was incubated at 23° C. for 60 minutes.
To perform the detection of the reaction, EDTA completely mixed in TR-FRET dilution buffer was added to antibody reagent. 10 μL of detection reagent was added to all wells of each well of the assay-plate and the plate was centrifuged to concentrate the mixture at the bottom of the wells. The plate was then incubated at 23° C. for 60 minutes. Plates were read on Perkin Elmer Envision 2104 instrument in TR-FRET mode using a 340 nm excitation filter, 520 nm fluorescence emission filter, and 490 or 495 nm terbium emission filter.
B-2, C2, and D-4 respectively.

LRRK2 G2019S enzyme, sequence (Q5S007 whole entry G2019S): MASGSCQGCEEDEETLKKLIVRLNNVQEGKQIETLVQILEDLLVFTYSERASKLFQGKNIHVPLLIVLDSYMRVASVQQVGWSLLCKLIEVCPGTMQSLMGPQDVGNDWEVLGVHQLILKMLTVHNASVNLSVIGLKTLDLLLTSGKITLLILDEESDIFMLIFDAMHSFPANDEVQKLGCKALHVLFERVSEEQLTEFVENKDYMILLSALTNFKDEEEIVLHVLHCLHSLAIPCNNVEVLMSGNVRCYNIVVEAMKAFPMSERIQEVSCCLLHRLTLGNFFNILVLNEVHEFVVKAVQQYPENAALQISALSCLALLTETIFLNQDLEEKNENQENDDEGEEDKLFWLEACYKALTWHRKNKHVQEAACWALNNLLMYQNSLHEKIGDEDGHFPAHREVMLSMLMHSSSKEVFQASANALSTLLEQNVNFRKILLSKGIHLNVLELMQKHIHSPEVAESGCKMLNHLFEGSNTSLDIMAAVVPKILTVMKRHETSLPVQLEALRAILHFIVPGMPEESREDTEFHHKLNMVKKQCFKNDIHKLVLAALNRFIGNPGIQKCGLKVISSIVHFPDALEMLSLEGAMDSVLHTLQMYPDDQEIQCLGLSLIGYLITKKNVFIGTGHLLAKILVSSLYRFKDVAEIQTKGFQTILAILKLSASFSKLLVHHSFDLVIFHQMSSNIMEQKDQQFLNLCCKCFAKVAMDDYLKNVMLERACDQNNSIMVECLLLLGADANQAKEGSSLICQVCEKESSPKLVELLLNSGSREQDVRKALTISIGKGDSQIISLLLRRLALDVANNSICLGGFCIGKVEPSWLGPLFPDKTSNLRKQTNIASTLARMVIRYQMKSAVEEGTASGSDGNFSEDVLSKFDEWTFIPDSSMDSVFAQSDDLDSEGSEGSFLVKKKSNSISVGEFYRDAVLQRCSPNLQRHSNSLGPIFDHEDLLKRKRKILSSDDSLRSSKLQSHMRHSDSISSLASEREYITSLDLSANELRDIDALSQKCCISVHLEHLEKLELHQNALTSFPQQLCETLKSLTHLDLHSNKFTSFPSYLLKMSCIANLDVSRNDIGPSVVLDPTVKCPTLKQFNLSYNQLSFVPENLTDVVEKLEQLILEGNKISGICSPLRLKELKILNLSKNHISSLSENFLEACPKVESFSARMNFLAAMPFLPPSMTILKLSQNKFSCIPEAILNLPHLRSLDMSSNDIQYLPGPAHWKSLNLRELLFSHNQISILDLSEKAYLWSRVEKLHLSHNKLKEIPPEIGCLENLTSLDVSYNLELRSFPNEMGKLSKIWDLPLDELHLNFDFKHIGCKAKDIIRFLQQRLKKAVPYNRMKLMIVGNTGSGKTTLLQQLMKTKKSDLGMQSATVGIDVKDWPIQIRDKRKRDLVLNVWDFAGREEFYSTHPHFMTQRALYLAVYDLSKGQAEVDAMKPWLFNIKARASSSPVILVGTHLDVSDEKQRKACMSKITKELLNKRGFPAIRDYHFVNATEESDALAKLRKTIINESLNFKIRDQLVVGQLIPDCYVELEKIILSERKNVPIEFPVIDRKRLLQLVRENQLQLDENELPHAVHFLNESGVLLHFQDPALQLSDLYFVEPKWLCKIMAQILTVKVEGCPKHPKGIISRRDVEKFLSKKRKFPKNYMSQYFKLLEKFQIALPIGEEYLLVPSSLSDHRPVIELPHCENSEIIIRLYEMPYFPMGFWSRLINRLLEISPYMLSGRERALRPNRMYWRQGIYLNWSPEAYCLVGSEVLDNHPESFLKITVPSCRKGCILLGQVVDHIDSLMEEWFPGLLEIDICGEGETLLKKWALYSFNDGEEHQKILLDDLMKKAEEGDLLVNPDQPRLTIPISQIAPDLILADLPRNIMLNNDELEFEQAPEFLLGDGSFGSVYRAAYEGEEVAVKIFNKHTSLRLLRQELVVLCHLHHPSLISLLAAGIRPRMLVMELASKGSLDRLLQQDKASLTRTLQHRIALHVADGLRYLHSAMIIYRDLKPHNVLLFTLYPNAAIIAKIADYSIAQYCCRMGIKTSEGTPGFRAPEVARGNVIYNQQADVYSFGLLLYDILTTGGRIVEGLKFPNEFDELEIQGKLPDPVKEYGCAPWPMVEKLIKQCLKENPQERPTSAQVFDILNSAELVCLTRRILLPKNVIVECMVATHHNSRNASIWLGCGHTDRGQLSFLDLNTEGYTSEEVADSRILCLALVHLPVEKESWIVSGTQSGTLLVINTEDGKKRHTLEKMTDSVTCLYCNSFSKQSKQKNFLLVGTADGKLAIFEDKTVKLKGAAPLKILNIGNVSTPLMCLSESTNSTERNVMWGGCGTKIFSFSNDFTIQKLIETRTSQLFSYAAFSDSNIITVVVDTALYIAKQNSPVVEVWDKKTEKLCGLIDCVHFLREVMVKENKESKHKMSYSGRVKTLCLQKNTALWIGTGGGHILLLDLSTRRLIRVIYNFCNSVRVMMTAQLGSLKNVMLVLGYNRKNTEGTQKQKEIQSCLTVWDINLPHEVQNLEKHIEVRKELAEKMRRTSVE

Structure (SMILES)	IC50 [nM]
[2H]C([2H])([2H])n1cnc(C(C)(C)n2cc(Nc3ncc(C(F)(F)F)c(C4CC4)n3)c(C)n2)n1 [Compound A-16, 4-cyclopropyl-N-[3-methyl-1-[1-methyl-1-[1-(trideuteriomethyl)-1,2,4-triazol-3-yl]ethyl]pyrazol-4-yl]-5-(trifluoromethyl)pyrimidin-2-amine]	< 30
CC(C)(C#N)n1cc(Nc2ncc(C(F)(F)F)c(C3CC3)n2)c(Cl)n1 [Compound A-17, 2-(3-chloro-4-((4-cyclopropyl-5-(trifluoromethyl)pyrimidin-2-yl)amino)-1H-pyrazol-1-yl)-2-methylpropanenitrile]	30 to 60
Cc1c(Nc2ncc(C(F)(F)F)c(C3CC3)n2)cnn1CC(C)(C)O [Compound A-18, 1-[4-[[4-cyclopropyl-5-(trifluoromethyl)pyrimidin-2-yl]amino]-5-methyl-pyrazol-1-yl]-2-methyl-propan-2-ol]	30 to 60
Cc1nn(CC(C)(C)O)cc1Nc1ncc(C(F)(F)F)c(C2CC2)n1 [Compound A-19, 1-[4-[[4-cyclopropyl-5-(trifluoromethyl)pyrimidin-2-yl]amino]-3-methyl-pyrazol-1-yl]-2-methyl-propan-2-ol]	30 to 60
CC(=O)N1CCC(n2ncc(Nc3ncc(C(F)(F)F)c(C4CC4)n3)c2C)CC1 [Compound A-20, 1-[4-[4-[[4-cyclopropyl-5-(trifluoromethyl)pyrimidin-2-yl]amino]-5-methyl-pyrazol-1-yl]-1-piperidyl]ethanone]	< 30
CC(=O)N1CCC(n2cc(Nc3ncc(C(F)(F)F)c(C4CC4)n3)c(C)n2)CC1 [Compound A-21, 1-[4-[4-[[4-cyclopropyl-5-(trifluoromethyl)pyrimidin-2-yl]amino]-3-methyl-pyrazol-1-yl]-1-piperidyl]ethanone]	30 to 60
Cc1nn(C(C)(C)c2ccnn2C)cc1Nc1ncc(C(F)(F)F)c(C2CC2)n1 [Compound A-22, 4-cyclopropyl-N-(3-methyl-1-(2-(1-methyl-1H-pyrazol-5-yl)propan-2-yl)-1H-pyrazol-4-yl)-5-(trifluoromethyl)pyrimidin-2-amine]	> 60
Cc1nn(C(C)(C)c2ccn(C)n2)cc1Nc1ncc(C(F)(F)F)c(C2CC2)n1 [Compound A-23, 4-cyclopropyl-N-(3-methyl-1-(2-(1-methyl-1H-pyrazol-3-yl)propan-2-yl)-1H-pyrazol-4-yl)-5-(trifluoromethyl)pyrimidin-2-amine]	< 30
Cc1c(Nc2ncc(C(F)(F)F)c(C3CC3)n2)cnn1C1CCOCC1 [Compound A-24, 4-cyclopropyl-N-(5-methyl-1-tetrahydropyran-4-yl-pyrazol-4-yl)-5-(trifluoromethyl)pyrimidin-2-amine]	< 30
Cc1nn(C2CCOCC2)cc1Nc1ncc(C(F)(F)F)c(C2CC2)n1 [Compound A-25, 4-cyclopropyl-N-(3-methyl-1-tetrahydropyran-4-yl-pyrazol-4-yl)-5-(trifluoromethyl)pyrimidin-2-amine]	30 to 60
Cc1c(Nc2ncc(C(F)(F)F)c(C3CC3)n2)cnn1C1CCC(=O)N(C)C1 (centres unmarked) [Compound A-26, 5-(4-((4-cyclopropyl-5-(trifluoromethyl)pyrimidin-2-yl)amino)-5-methyl-1H-pyrazol-1-yl)-1-methylpiperidin-2-one]	< 30
Cc1nn(C2CCC(=O)N(C)C2)cc1Nc1ncc(C(F)(F)F)c(C2CC2)n1 (centres unmarked) [Compound A-27, 5-(4-((4-cyclopropyl-5-(trifluoromethyl)pyrimidin-2-yl)amino)-3-methyl-1H-pyrazol-1-yl)-1-methylpiperidin-2-one]	> 60
Cc1c(Nc2ncc(C(F)(F)F)c(C3CC3)n2)cnn1C(CF)CF [Compound A-28, 4-cyclopropyl-N-[1-[2-fluoro-1-(fluoromethyl)ethyl]-5-methyl-pyrazol-4-yl]-5-(trifluoromethyl)pyrimidin-2-amine]	< 30
Cc1nn(C(CF)CF)cc1Nc1ncc(C(F)(F)F)c(C2CC2)n1 [Compound A-29, 4-cyclopropyl-N-[1-[2-fluoro-1-(fluoromethyl)ethyl]-3-methyl-pyrazol-4-yl]-5-(trifluoromethyl)pyrimidin-2-amine]	< 30
Cc1c(Nc2ncc(C(F)(F)F)c(C3CC3)n2)cnn1CCF [Compound A-30, 4-cyclopropyl-N-(1-(2-fluoroethyl)-5-methyl-1H-pyrazol-4-yl)-5-(trifluoromethyl)pyrimidin-2-amine]	< 30
Cc1nn(CCF)cc1Nc1ncc(C(F)(F)F)c(C2CC2)n1 [Compound A-31, 4-cyclopropyl-N-(1-(2-fluoroethyl)-3-methyl-1H-pyrazol-4-yl)-5-(trifluoromethyl)pyrimidin-2-amine]	< 30
Cc1nn(C(C)(C)C#N)cc1Nc1ncc(Cl)c(C2CCC2)n1 [Compound A-32, 2-(4-((5-chloro-4-cyclobutylpyrimidin-2-yl)amino)-3-methyl-1H-pyrazol-1-yl)-2-methylpropanenitrile]	> 60
Cc1nn(C(C)(C)c2ccnn2C)cc1Nc1ncc(Cl)c(C2CC2)n1 [Compound A-33, 5-chloro-4-cyclopropyl-N-(3-methyl-1-(2-(1-methyl-1H-pyrazol-5-yl)propan-2-yl)-1H-pyrazol-4-yl)pyrimidin-2-amine]	> 60
Cc1nn(C(C)(C)c2ccn(C)n2)cc1Nc1ncc(Cl)c(C2CC2)n1 [Compound A-34, 5-chloro-4-cyclopropyl-N-(3-methyl-1-(2-(1-methyl-1H-pyrazol-3-yl)propan-2-yl)-1H-pyrazol-4-yl)pyrimidin-2-amine]	< 30
Cc1nn(C(C)(C)c2ncn(C)n2)cc1Nc1ncc(Cl)c(C2CC2)n1 [Compound A-35, 5-chloro-4-cyclopropyl-N-(3-methyl-1-(2-(1-methyl-1H-1,2,4-triazol-3-yl)propan-2-yl)-1H-pyrazol-4-yl)pyrimidin-2-amine]	< 30
Cn1cnc(C(C)(C)n2cc(Nc3ncc(C(F)(F)F)c(C4CC4)n3)c(Cl)n2)n1 [Compound A-36, N-(3-chloro-1-(2-(1-methyl-1H-1,2,4-triazol-3-yl)propan-2-yl)-1H-pyrazol-4-yl)-4-cyclopropyl-5-(trifluoromethyl)pyrimidin-2-amine]	< 30
Cn1ncnc1C(C)(C)n1cc(Nc2ncc(C(F)(F)F)c(C3CC3)n2)c(Cl)n1 [Compound A-37, N-(3-chloro-1-(2-(1-methyl-1H-1,2,4-triazol-5-yl)propan-2-yl)-1H-pyrazol-4-yl)-4-cyclopropyl-5-(trifluoromethyl)pyrimidin-2-amine]	> 60
Cc1nn(C(C)(C)C#N)cc1Nc1ncc(C(F)(F)F)c(C2(F)CC2)n1 [Compound A-38, 2-(4-((4-(1-fluorocyclopropyl)-5-(trifluoromethyl)pyrimidin-2-yl)amino)-3-methyl-1H-pyrazol-1-yl)-2-methylpropanenitrile]	> 60
Cc1nn(C(C)(C)c2cn(C)nn2)cc1Nc1ncc(C(F)(F)F)c(C2CC2)n1 [Compound A-39, 4-cyclopropyl-N-(3-methyl-1-(2-(1-methyl-1H-1,2,3-triazol-4-yl)propan-2-yl)-1H-pyrazol-4-yl)-5-(trifluoromethyl)pyrimidin-2-amine]	< 30
Cc1nn(C(C)(C)c2cnn(C)n2)cc1Nc1ncc(C(F)(F)F)c(C2CC2)n1 [Compound A-40, 4-cyclopropyl-N-(3-methyl-1-(2-(2-methyl-2H-1,2,3-triazol-4-yl)propan-2-yl)-1H-pyrazol-4-yl)-5-(trifluoromethyl)pyrimidin-2-amine]	< 30
Cc1nn(C2(c3ncn(C)n3)CCC2)cc1Nc1ncc(C(F)(F)F)c(C2CC2)n1 [Compound A-41, 4-cyclopropyl-N-[3-methyl-1-[1-(1-methyl-1,2,4-triazol-3-yl)cyclobutyl]pyrazol-4-yl]-5-(trifluoromethyl)pyrimidin-2-amine]	< 30
Cc1nn(C2(c3ncnn3C)CCC2)cc1Nc1ncc(C(F)(F)F)c(C2CC2)n1 [Compound A-42, 4-cyclopropyl-N-[3-methyl-1-[1-(2-methyl-1,2,4-triazol-3-yl)cyclobutyl]pyrazol-4-yl]-5-(trifluoromethyl)pyrimidin-2-amine]	> 60
Cc1c(Nc2ncc(Cl)c(C3CC3)n2)cnn1C(CF)CF [Compound A-43, 5-chloro-4-cyclopropyl-N-[1-[2-fluoro-1-(fluoromethyl)ethyl]-5-methyl-pyrazol-4-yl]pyrimidin-2-amine]	< 30
Cc1nn(C(CF)CF)cc1Nc1ncc(Cl)c(C2CC2)n1 [Compound A-44, 5-chloro-4-cyclopropyl-N-[1-[2-fluoro-1-(fluoromethyl)ethyl]-3-methyl-pyrazol-4-yl]pyrimidin-2-amine]	< 30
